Experimental findings from ChEMBL document CHEMBL1201862, “PubChem BioAssay data set” (2004) are described below.

Molecules are shown by their SMILES.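 Dose response: 5 concentrations. Exposure: 48 h. Format: 96-well plates. Endpoint: linear interpolation; highest concentration if not reached. Here, GI50 denotes the concentration required for 50% inhibition of growth.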 Active and inactive are the calls of the source. Rule as the data show it: active = GI50 up to about 1.1 µM and inactive = higher. A value given as a limit tells only on which side of the number the result lay.

Holding throughout (experiment): NCI tumour cell line growth inhibition, 48 h
The test system of assay [1] is BT-549.
The subject of assay [2] is SK-MEL-28.
Assay [3] deals with NCI/ADR-RES.
The test system of assay [4] is MDA-N.
Assay [5] concerns SR.
Assay [6] concerns KM12.
For assay [7], the system named is CAKI-1.
The test system of assay [8] is UACC-62.
Assay [9] has as its system MDA-MB-435.
Assay [10] has as its system SK-MEL-2.
The subject of assay [11] is RXF 393.
In assay [12] the test system is MCF7.
Assay [13] concerns OVCAR-8.
Assay [14] relates to RPMI-8226.
Assay [15] has as its system NCI-H460.
Assay [16] relates to HOP-92.
The subject of assay [17] is OVCAR-3.
In assay [18] the test system is SF-268.
Assay [19] has as its system LOX IMVI.

Consider `CCOC(=O)C(NC(=O)c1ccccc1)(Nc1ccc(S(=O)(=O)Nc2nc(C)cc(C)n2)cc1)C(F)(F)F` (configuration not stated), for which the GI50 in [1], in assay [2], in assay [3], in [4], in assay [5] and in assay [6] was > 100 µM (inactive) in each case. The GI50 in assay [7], in assay [8], in assay [9], in [10], in assay [11] and in assay [12] was > 100 µM (inactive) throughout. The GI50 in [13], in assay [14], in assay [15], in assay [16], in assay [17] and in assay [18] was > 100 µM (inactive) each time. The GI50 in assay [19] is > 100 µM (inactive).

Consider `CCOC(=O)C#Cc1cccc(C#CC(=O)OCC)c1`, for which the GI50 in assay [1] is 2.28 µM (inactive); in assay [2], 5.33 µM (inactive); in assay [3], 6.05 µM (inactive); in [4] it was 2.32 µM (inactive); in [5] it was 0.506 µM (active); in [6], 6.65 µM (inactive). The GI50 was 4.93 µM (inactive) in assay [7]; 4.94 µM (inactive) in [8]; 4.59 µM (inactive) in [9]; 2.19 µM (inactive) in [10]; 5.31 µM (inactive) in assay [11]; 5.62 µM (inactive) in assay [12]. Besides, the GI50 in assay [13] was 6.98 µM (inactive); in assay [14] it was 4.71 µM (inactive); in assay [15] it was 11.1 µM (inactive); in [16] it was 5.87 µM (inactive); in assay [17] it was 6.07 µM (inactive); in [18] it was 6.52 µM (inactive). For the same compound, the GI50 in assay [19] was 2.07 µM (inactive).

As for `CC(C)C(=O)/C=C/c1ccc(Cl)cc1Cl`, the GI50 in [1] was 4.41 µM (inactive); in [2], 16.5 µM (inactive); in assay [3], 20.1 µM (inactive); in assay [4], 2.96 µM (inactive); in assay [5], 6.61 µM (inactive); in [6], 4.06 µM (inactive). Besides, the GI50 is 12.2 µM (inactive) in assay [7]; 13 µM (inactive) in assay [8]; 2.99 µM (inactive) in assay [9]; 14.2 µM (inactive) in assay [10]; 8.79 µM (inactive) in [11]; 3.62 µM (inactive) in [12]. Moreover, the GI50 in [13] was 10.5 µM (inactive); in [14], > 100 µM (inactive); in assay [15] it was 11.3 µM (inactive); in [16] it was 16.8 µM (inactive); in assay [17] it was 4.63 µM (inactive); in [18], 6.93 µM (inactive). Further, in [19], the GI50 was 3.55 µM (inactive).

As for `COC(=O)CCC(=O)NC1=C(Nc2ccc(OC)cc2)C(=O)c2ccccc2C1=O`, the GI50 in [1] was 15.4 µM (inactive); in [2], 17.2 µM (inactive); in assay [3], 16.3 µM (inactive); in assay [4], 1.81 µM (inactive); in [5] it was 12.9 µM (inactive); in assay [6] it was 14.3 µM (inactive). The GI50 in [7] was 16.9 µM (inactive); in assay [8], 3.16 µM (inactive); in assay [9], 2 µM (inactive); in assay [10] it was 6.3 µM (inactive); in [11], 13.4 µM (inactive); in assay [12], 4.11 µM (inactive). In addition, the GI50 in assay [13] was 14.1 µM (inactive); in assay [14], 15.7 µM (inactive); in assay [15], 7.21 µM (inactive); in assay [16] it was 8.69 µM (inactive); in assay [17], 3.18 µM (inactive); in [18], 18.9 µM (inactive). For the same compound, in assay [19], the GI50 was 4.15 µM (inactive).

Turning to `CCCC(=O)Nc1cn(COC)c(C(=O)N2C[C@@H]3C[C@]34C2=CC(=O)c2[nH]cc(C)c24)n1`, the GI50 was 7.74 µM (inactive) in assay [1]; 14.5 µM (inactive) in assay [2]; 7.87 µM (inactive) in assay [3]; 9.29 µM (inactive) in assay [4]; 0.24 µM (active) in assay [5]; > 5 µM (inactive) in assay [6]. Besides, the GI50 in assay [7] is 1.91 µM (inactive); in [8] it was 7.62 µM (inactive); in [9] it was 9.23 µM (inactive); in [10], 8.47 µM (inactive); in assay [11] it was 2.57 µM (inactive); in [12], 2.45 µM (inactive). The GI50 was 4.23 µM (inactive) in assay [13]; 10.9 µM (inactive) in [14]; 4.79 µM (inactive) in [15]; 9.31 µM (inactive) in [16]; 10.3 µM (inactive) in [17]; 5.31 µM (inactive) in assay [18]. Further, the GI50 in assay [19] is 6.31 µM (inactive).

As for `O=C1CCSc2nc(-c3ccc4c(c3)OCO4)nn21`, the GI50 in assay [1], in assay [2], in [3], in [4], in [5] and in [6] was > 10 µM (inactive) throughout. The GI50 in [7], in assay [8], in assay [9], in assay [10], in [11] and in [12] was > 10 µM (inactive) in each case. The GI50 in [13], in assay [14], in assay [15], in assay [16], in [17] and in assay [18] was > 10 µM (inactive) each time. The GI50 in assay [19] is > 10 µM (inactive).

As for `O=C1NC(N2CCOCC2)=N/C1=C\c1cccs1`, the GI50 in assay [1] was > 100 µM (inactive); in assay [2], > 100 µM (inactive); in assay [3] it was > 100 µM (inactive); in assay [4], > 100 µM (inactive); in [5], > 100 µM (inactive); in assay [6], 36.2 µM (inactive). Also, the GI50 in [7], in assay [8], in assay [9], in assay [10], in assay [11] and in assay [12] was > 100 µM (inactive) each time. The GI50 in [13], in assay [14], in assay [16], in assay [17], in assay [18] and in assay [19] was > 100 µM (inactive) throughout.

Take `O=[N+]([O-])c1ccc2c3c1[C@H]1O[C@H]1c1cccc(c1-3)[C@@H]1O[C@H]21`: the GI50 in assay [1] was 1.99 µM (inactive); in assay [2], 2.28 µM (inactive); in assay [3], 2.41 µM (inactive); in [4], 2.17 µM (inactive); in assay [5], 2.72 µM (inactive); in [6], 2.35 µM (inactive). In addition, the GI50 is 1.99 µM (inactive) in assay [7]; 1.86 µM (inactive) in [8]; 1.85 µM (inactive) in [9]; 2.52 µM (inactive) in assay [10]; 1.78 µM (inactive) in assay [11]; 2.11 µM (inactive) in [12]. Besides, the GI50 is 0.91 µM (active) in assay [13]; 1.23 µM (inactive) in [14]; 2.18 µM (inactive) in assay [16]; 2.63 µM (inactive) in assay [17]; 1.98 µM (inactive) in assay [18]; 0.305 µM (active) in [19].

For `CC(NC(=O)/C(=C/c1ccccc1)NC(=O)c1ccccc1)C(=O)O` (configuration not stated), the GI50 in assay [1] was > 100 µM (inactive); in assay [2] it was > 100 µM (inactive); in assay [3], 40.5 µM (inactive); in assay [4] it was 55.8 µM (inactive); in [5], 37.6 µM (inactive); in assay [6], 6.59 µM (inactive). The GI50 in [7] is 29.7 µM (inactive); in assay [8] it was 57 µM (inactive); in assay [9], 38.8 µM (inactive); in assay [10], > 100 µM (inactive); in [11] it was > 100 µM (inactive); in assay [12], 54.2 µM (inactive). The GI50 in assay [13] is 50 µM (inactive); in assay [14], > 100 µM (inactive); in assay [15], > 100 µM (inactive); in assay [16], 33.1 µM (inactive); in assay [17] it was > 100 µM (inactive); in [18], > 100 µM (inactive). In assay [19], the GI50 was 25.2 µM (inactive).

Take `COC(=O)c1c(O)ccc2c1c1c(n2Cc2ccc(OC)cc2)C(=O)c2ccccc2C1=O`: the GI50 in [1] was 0.0131 µM (active); in assay [2], 17.9 µM (inactive); in assay [3] it was 7.21 µM (inactive); in assay [4] it was 12.5 µM (inactive); in [5], 0.251 µM (active); in assay [6], 15.6 µM (inactive). Also, the GI50 in [7] was 29.4 µM (inactive); in assay [9], 6.46 µM (inactive); in assay [10], 11.3 µM (inactive); in assay [11], 10.7 µM (inactive); in assay [12], 4.49 µM (inactive); in assay [13] it was 2.4 µM (inactive). Also, the GI50 was 0.168 µM (active) in [14]; 3.75 µM (inactive) in [15]; 10.5 µM (inactive) in assay [16]; 16.1 µM (inactive) in assay [17]; 12.4 µM (inactive) in assay [18]; 5.85 µM (inactive) in assay [19].
